# Laboratory results from US9345742B2, “Aminostatin derivatives for the treatment of arthrosis” (MERCK PATENT GMBH, priority 2011, dated 2016).
# Numbered stars: 1 amine (or outer) side, 2 acyl side, 3 side chain; on linkers, the order of the positions; unused ones are H or OH. Square brackets hold non-standard residues; d marks the D form. Peptide text beside a SMILES is read from it. * marks the point of attachment. X1 = N[C@@H](CC(=O)[*:2])[C@H](Cc1ccccc1)N[*:1]; Isovaleryl = CC(C)CC(=O)*
# Tests used:
# [1] = system: bovine explants; experiment: Cartilage explant assay (pH-induced cartilage degradation, GAG liberation); assay type: cell-based; details: Bos taurus, 72 h, pH 5.5, 3 days
# From the text: In order to investigate the effect of potential cathepsin D inhibitors on cartilage degradation, a pH-induced model based on bovine explants is used. The pH of the medium in which the explants are cultivated is matched here to the pathophysiological pH of an arthrotic knee. This pH is pH 5.5. In this ex vivo model, potential cathepsin D inhibitors are subsequently investigated for their action with respect to stopping of the cartilage degradation process. If the cartilage is destroyed, glycosaminoglycans (GAGs) are released into the cell culture supernatant. The amount of GAGs liberated can be determined quantitatively with the aid of DMMB (dimethylmethylene blue hydrochloride). If sulfated GAGs are detected using dimethylmethylene blue hydrochloride, the decrease in the absorption at 633 nm is utilised. […] In order to determine the concentration, a calibration line is also recorded using chondroitin sulfate.
# The bovine explants are firstly prepared. The induction of the cartilage degradation is carried out in 96-multiwell plates. One explant is cultivated per well. In each case, 200 μl of DMEM (incubation medium pH 5.5) without FBS+30 μg/ml of ascorbic acid are added. Thus negative control, explants (n=4) are incubated at pH 7.4 (without FBS). This control is not included in the calculation of the data, but instead ensures that the pH change has the desired effect on the liberation of GAG. At this point, the substances to be tested are added. No preincubation of the explants is carried out. The explants are cultivated with the corresponding substances for 3 days in the incubator at 37° C. and 7.5% CO2.
# In order to investigate the effect of cathepsin D inhibitors on the liberation of GAG (glycosaminoglycan), the substances are employed in the desired concentration and cultivated for 3 days. The compounds to be tested are tested in a first experiment in a concentration of 1 μM and 1% of DMSO. Substances which have an effect of >50% on the liberation of GAG (this corresponds to <50% of the control in the Assay Explorer) are tested in the next experiment at 100 nM and 1% of DMSO. Substances which have an effect of >50% on the liberation of GAG under these conditions (this corresponds to <50% of the control in the Assay Explorer) are tested in a concentration/effect relationship. The compounds here are investigated in the following concentrations: 30 μM, 10 μM, 3 μM, 1 μM, […], 0.1 μM, 0.03 μM, 0.01 μM.
# The positive control used is pepstatin A with a concentration of 0.01 μM. The assay window is defined by the control (pH 5.5), defined as 0% effect, and the control pH 5.5+0.01 μM pepstatin A, defined as 100% effect. After incubation for 3 days, the cell culture supernatants are collected and stored at −20° C. or measured directly. The amount of liberated GAG is measured photometrically.
# The effect (1 value) of the respective substance in % based on the positive control (pH 5.5+0.01 μM pepstatin A) and the negative control (pH 5.5) is reported for concentrations of 1 μM and 100 nM. The value represents the average of 4 replicants. In the determination of a concentration/effect relationship, an IC50 value is reported to the database (Assay Explorer).
# The cell culture supernatants (200 μl) are either measured directly or stored at −20° C. In order to ensure an accurate determination of the concentration (μg/ml of GAG in the supernatant) of GAG, the measurement values must be located in the linear region of the standard curve. In order to ensure this, various dilutions are routinely introduced (1/5, 1/10, 1/20, 1/40). The dilutions are prepared with medium and introduced automatically (Hamilton) into a 384-well plate (15 μl). 60 μl of DMMB solution are likewise added automatically (or using a multichannel pipette). A rapid colour reaction occurs, which is subsequently measured at 633 nm using a plate reader (for example Envision).
# [2] = Stability in bovine synovial fluid; assay type: in vitro ADME; details: 1 μM, 48 h at 37° C.
# Protocol: In order to check the stability of individual compounds, a pool of four different bovine synovial fluids is mixed. To this end, about 1 ml per SF is used. The mixture is prepared directly in a 5 ml glass vessel. The SFs are mixed thoroughly, but carefully. No air bubbles or foam should form. To this end, a vortex unit is used at the lowest speed. The compounds to be tested are tested in an initial concentration (unless required otherwise) of 1 μM. After addition of the substance, the batch is again mixed thoroughly and carefully. For visual monitoring, all SF batches are photographed, and the pictures are filed in the eLabBio file for the corresponding experiment. […] The batches are incubated in the incubator for 48 h at 37° C. and 7.5% CO2.
# The sampling is carried out after the pre-agreed times (unless required otherwise, see below). 200 μl of the SF are removed from the mixture per time and transferred directly into a 0.5 ml “low-binding” Eppendorf vessel. “Low-binding” Eppendorf vessels are used in order to minimise interaction of the substances with the plastic of the vessels. 200 μl of acetonitrile have already been introduced into the Eppendorf vessel, so that a 1+1 mixture of the SF forms thereafter. This simplifies the subsequent analysis, but precipitation of protein may occur immediately after addition of the SF. This should be noted on the protocol. The 0 h sample is taken immediately after addition of the substance. This corresponds to the 100% value in the stability calculation. Ideally, the concentration employed should be retrieved here. The samples can be frozen at −20° C. • 0 h • 6 h • 24 h • 48 h
# The negative control used is SF without substance. The positive control used is SF with 1 μM of substance. This corresponds to the 0 h value and thus 100% stability.
# The concentrations measured (ng/ml) are plotted against the time in a graph (GraphPad Prism®). The percentage stability of the substance is determined here. The 100% value used is the initial value in the SF at time 0 h. The data are stored in eLabBio under the respective experiment number and reported in the MSR database (as percent stability after the corresponding incubation times).
# [3] = system: rat knee joint; experiment: Carrageenan (CAR)-induced knee joint inflammation: swelling and thermal hyperalgesia (Hargreaves test); assay type: in vivo; details: intra-articular administration 30 minutes before CAR
# Protocol: In order to induce an inflammation reaction, a carrageenan solution (CAR, 1%, 50 μl) was injected intra-articularly on one side into a rat knee joint. The uninjected side was used for control purposes. Six animals per group were used. The […] was determined by means of a micrometer screw (medial-lateral on the knee joint), and the thermal hyperalgesia was determined by means of a directed infrared light source by the Hargreaves method (Hargreaves et al., 1988) on the sole of the foot. Since the site of inflammation (knee joint) is different from the site of measurement (paw sole), use is made here of the term secondary thermal hyperalgesia, the mechanism of which is of importance for the discovery of effective analgesics.
# Experimental description of thermal hyperalgesia (Hargreaves test): the experimental animal is placed in a plastic chamber on a quartz sheet. Before testing, the experimental animal is firstly given about 5-15 minutes time to familiarise itself with the environment. As soon as the experimental animal no longer moves so frequently after the familiarisation phase (end of the exploration phase), the infrared light source, whose focus is in the plane of the glass bottom, is positioned directly beneath the rear paw to be stimulated. An experiment run is then started by pressing the button: infrared light results in an increase in the skin temperature of the rear paw. The experiment is terminated either by the experimental animal raising the rear paw (as an expression of the pain threshold being reached) or by automatic switching-off of the infrared light source when a prespecified maximum temperature has been reached. Light reflected by the paw is recorded as long as the experimental animal sits still. Withdrawal of the paw interrupts this reflection, after which the infrared light source is switched off and the time from switching on to switching off is recorded. The instrument is calibrated in such a way that the infrared light source increases the skin temperature to about 45 degrees Celsius in 10 s (Hargreaves et al. 1988). […]
# [4] = target: cathepsin D isolated from the human liver (Homo sapiens (Human), UniProt P07339); experiment: In-vitro fluorescence assay for identification of cathepsin D inhibitors; assay type: biochemical; details: cathepsin D 1.4 nM, pH 5.5; read-out: CatD assay IC50-
# Summary of the method: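 Human liver cathepsin D (1.4 nM final) preincubated 10 min at room temperature with serially diluted compounds in 100 mM sodium acetate pH 5.5, 1.25% DMSO, 0.25% CHAPS. Reaction started with 5 μM MCA/Dnp-quenched peptide substrate. Fluorescence increase (ex 340/em 450 nm) over 60 min at room temperature compared with compound-free wells.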
# [5] = target: recombinant human renin (Homo sapiens (Human), UniProt P00797); experiment: In-vitro fluorescence assay for identification of renin-inhibitory activity; assay type: biochemical; details: recombinant human renin 10 nM, pH 7.2; read-out: Renin selectivity IC50
# Summary of the method: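 Recombinant human renin (10 nM) pre-incubated 15 min at RT with serially diluted compound in 50 mM Mops pH 7.2, 1.5% DMSO, 0.1% Igepal, 0.5% BSA; Edans/Dabcyl FRET peptide (5 µM final) added, 60 min at 37 °C; cleavage read as fluorescence increase (ex 340/em 495 nm) against no-compound wells.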
# cathepsin D isolated from the human liver, sequence (P07339 65-161): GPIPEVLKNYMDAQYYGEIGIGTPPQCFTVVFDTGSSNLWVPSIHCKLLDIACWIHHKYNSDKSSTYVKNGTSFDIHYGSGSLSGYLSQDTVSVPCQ
# cathepsin D isolated from the human liver, sequence (P07339 169-412): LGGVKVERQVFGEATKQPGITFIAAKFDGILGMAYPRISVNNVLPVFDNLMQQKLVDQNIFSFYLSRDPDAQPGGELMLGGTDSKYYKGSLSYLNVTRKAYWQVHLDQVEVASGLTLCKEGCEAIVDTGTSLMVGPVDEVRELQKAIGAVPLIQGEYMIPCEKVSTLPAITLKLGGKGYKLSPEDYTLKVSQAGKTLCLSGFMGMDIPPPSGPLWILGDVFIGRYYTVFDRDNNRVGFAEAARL
# recombinant human renin, sequence (P00797 67-406): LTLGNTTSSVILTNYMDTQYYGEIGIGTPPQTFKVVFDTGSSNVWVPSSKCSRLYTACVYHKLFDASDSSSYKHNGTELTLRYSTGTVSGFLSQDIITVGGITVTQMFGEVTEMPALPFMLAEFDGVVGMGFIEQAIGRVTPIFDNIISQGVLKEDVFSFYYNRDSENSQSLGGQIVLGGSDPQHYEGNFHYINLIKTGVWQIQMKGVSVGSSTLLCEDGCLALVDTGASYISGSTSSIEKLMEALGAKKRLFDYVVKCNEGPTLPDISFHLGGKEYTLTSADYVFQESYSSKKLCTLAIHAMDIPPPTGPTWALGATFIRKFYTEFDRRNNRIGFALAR
Structure (SMILES),Stability in synovial fluid [2],IC50 [4],CAR-induced swelling of joint [3],other results
"C[C@]12C=CC(=O)C=C1CC[C@H]1[C@@H]3C[C@@H](O)[C@](O)(C(=O)CO)[C@@]3(C)C[C@H](O)[C@@]12F [TAC, Triamcinolone, reference compound]",,,capable of reducing the CAR-induced swelling,
"CC[C@H](C)[C@H](NC(=O)C[C@H](N)[C@H](Cc1ccccc1)NC(=O)[C@@H](NC(=O)[C@H](CC(C)C)NC(=O)CC(C)C)C(C)C)C(=O)N[C@H](C(=O)O)C(C)C [Compound 23, (S)-2-[(2S,3S)-2-((3S,4S)-3-Amino-4-{(S)-3-methyl-2-[(S)-4-methyl-2-(3-methylbutyrylamino)pentanoylamino]-butyrylamino}-5-phenylpentanoylamino)-3-methyl-pentanoylamino]-3-methylbutyric acid] (Isovaleryl-LV[X1]IV-OH)",,0.05 µM,no influence on inflammatory swelling,thermal hyperalgesia ([3]; Hargreaves test): exerts an anti-hyperalgesic action
"CC[C@H](C)[C@H](NC(=O)C[C@H](N)[C@H](Cc1ccccc1)NC(=O)[C@@H](NC(=O)[C@H](CC(C)C)NC(=O)CC(C)C)C(C)C)C(=O)NCCc1ccccc1 [Compound 24, N-((1S,2S)-2-Methyl-1-phenethyl-carbamoylbutyl)-(S)-3-amino-4-{(S)-(S)-3-methyl-2-[(S)-4-methyl-2-(3-methylbutyryl-amino)pentanoylamino]butyrylamino}-5-phenylpentanamide]",stable,,,IC50 [5]: > 30 µM

# The next lines start with results.
Stability in synovial fluid [2],IC50 [4],Structure (SMILES),CAR-induced swelling of joint [3],other results
stable,,"CC[C@H](C)[C@H](NC(=O)C[C@H](N)[C@H](Cc1ccccc1)NC(=O)[C@@H](NC(=O)[C@H](Cc1ccccc1)NC(=O)CC(C)C)C(C)C)C(=O)N[C@H](C(=O)O)C(C)C [Compound 33, (S)-2-[(2S,3S)-2-((3S,4S)-3-Amino-4-{(S)-3-methyl-2-[(S)-2-(3-methylbutyrylamino)-3-phenylpropionylamino]-1-oxobutyl-amino}-5-phenylpentanoylamino)-3-methylpentanoylamino]-3-methyl-butyric acid] (Isovaleryl-FV[X1]IV-OH)",,IC50 [1]: 0.00264 µM
stable,0.046 µM,"CC[C@H](C)[C@H](NC(=O)C[C@H](N)[C@H](Cc1ccccc1)NC(=O)[C@@H](NC(=O)[C@H](CC(C)C)NC(=O)CC(C)C)C(C)C)C(=O)Nc1ccn(C)n1 [Compound 27, N-[(1S,2S)-2-Methyl-1-(1-methyl-1H-pyrazol-3-ylcarbamoyl)butyl]-(S)-3-amino-4-{(S)-(S)-3-methyl-2-[(S)-4-methyl-2-(3-methylbutyrylamino)pentanoylamino]-butyrylamino}-5-phenylpentanamide]",,
